Test results reported in paper PMC10032564, “Ligand-Capped Cobalt(II) Multiplies the Value of the Double-Histidine Motif for PCS NMR Studies” (Journal of the American Chemical Society, 2023).

Assays:
[1] = target: T1, GB1 (K28H/Q32H, diHis GB1) (Streptococcus sp. 'group G', UniProt P06654, K254H/Q258H); assay: NMR titration; PCS of the IDA-Co2+ complex; format: binding
T1 construct: gene spg; GB1

[2] = target: T1, GB1 (K28H/Q32H, diHis GB1); assay: NMR (Kd measurement; PCS of the NTA-Co2+ complex); format: binding

T1 sequence (P06654 228-282 K254H/Q258H limits assumed): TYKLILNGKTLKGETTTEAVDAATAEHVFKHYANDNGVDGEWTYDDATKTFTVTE

O=C(O)CNCC(=O)O [IDA-Co2+, iminodiacetic acid]
Kd [1]: < 212 µM

O=C(O)CN(CC(=O)O)CC(=O)O [NTA-Co2+, nitrilotriacetic acid]
Kd [2]: 128 µM
